Our source for the IC50 values is US20230365530A1, “QUINAZOLINE-2,4-DIAMINE DERIVATIVE AND PHARMACEUTICAL COMPOSITION FOR PREVENTING OR TREATING CANCER COMPRISING SAME AS ACTIVE INGREDIENT” (THE ASEAN FOUNDATION, priority 2020, published 2023).

Structures are written as SMILES. pIC50: −log10 of the molar value.

In the assay the target is EHMT2 (Euchromatic histone-lysine N-methyltransferase 2) (Homo sapiens (Human), UniProt Q96KQ7). Nature of the assay: EHMT2 enzyme inhibition, LANCE TR-FRET. The format is biochemical. As to conditions: histone H3 peptide, 1 hour at room temperature. How it is done: In order to analyze the enzyme inhibitory efficacy of the compounds of Examples 1 to 89, EHMT2 (Euchromatic histone-lysine N-methyltransferase 2) enzyme activity was measured using the LANCE TR-FRET™ analysis method of Perkin Elmer. When the EHMT2 enzyme is activated, the 9th lysine residue of the biotinylated-histone peptide is methylated and the EU-conjugated antibody is combined to the methylated histone peptide. Then, when the complex is irradiated with light of excitation wavelength, the complex emits light having a wavelength of 665 nm through FRET phenomenon. Accordingly, fluorescence was measured, and IC50 values were calculated through a software to evaluate the EHMT2 enzyme activity inhibitory effect of the compounds of Examples 1 to 89.
Sequence of EHMT2 (Euchromatic histone-lysine N-methyltransferase 2) (Q96KQ7 whole entry): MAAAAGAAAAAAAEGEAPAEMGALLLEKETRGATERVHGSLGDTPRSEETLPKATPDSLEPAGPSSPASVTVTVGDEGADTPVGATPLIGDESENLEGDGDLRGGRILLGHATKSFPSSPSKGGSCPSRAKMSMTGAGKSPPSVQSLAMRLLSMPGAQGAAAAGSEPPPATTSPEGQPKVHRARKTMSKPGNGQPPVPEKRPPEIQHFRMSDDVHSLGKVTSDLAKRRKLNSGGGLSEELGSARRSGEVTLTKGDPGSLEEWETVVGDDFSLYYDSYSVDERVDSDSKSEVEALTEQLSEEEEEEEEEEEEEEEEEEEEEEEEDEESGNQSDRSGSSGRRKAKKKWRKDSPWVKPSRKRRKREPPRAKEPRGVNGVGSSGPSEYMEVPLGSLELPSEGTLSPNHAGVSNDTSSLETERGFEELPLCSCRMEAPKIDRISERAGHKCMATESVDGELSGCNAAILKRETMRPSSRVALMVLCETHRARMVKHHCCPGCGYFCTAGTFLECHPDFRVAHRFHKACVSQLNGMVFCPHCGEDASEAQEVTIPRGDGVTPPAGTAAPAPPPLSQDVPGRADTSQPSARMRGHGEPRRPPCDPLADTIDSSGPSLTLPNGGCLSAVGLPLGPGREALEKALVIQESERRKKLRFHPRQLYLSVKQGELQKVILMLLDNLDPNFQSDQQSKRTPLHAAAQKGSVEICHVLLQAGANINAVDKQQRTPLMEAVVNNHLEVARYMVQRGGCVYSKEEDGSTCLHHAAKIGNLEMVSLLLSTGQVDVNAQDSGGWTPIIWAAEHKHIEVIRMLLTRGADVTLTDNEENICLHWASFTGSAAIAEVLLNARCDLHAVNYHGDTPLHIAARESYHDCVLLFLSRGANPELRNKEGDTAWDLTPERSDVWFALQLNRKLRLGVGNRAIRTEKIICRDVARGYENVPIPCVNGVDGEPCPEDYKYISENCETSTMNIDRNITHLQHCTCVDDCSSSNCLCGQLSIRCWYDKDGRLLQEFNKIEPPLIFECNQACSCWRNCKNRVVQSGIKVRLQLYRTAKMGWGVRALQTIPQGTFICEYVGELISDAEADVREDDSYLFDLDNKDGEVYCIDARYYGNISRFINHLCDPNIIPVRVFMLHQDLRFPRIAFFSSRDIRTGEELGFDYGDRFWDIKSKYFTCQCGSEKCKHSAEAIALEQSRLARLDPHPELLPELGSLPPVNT
Specific experimental methods are as follows. First, the compounds of Examples 1 to 89 of 1 nM to 100 μM (4× conc.) were put into a 384 well plate (25 μL/well), and 2 μM EEMT2/G9a enzyme (4× conc.) was put into the 384 well plate (25 μL/well). The plate was then centrifuged at 1,500 rpm for 5 seconds after sealing the plate with plate sealing foil. After incubating the EHMT2/G9a enzyme, SAM, and the compounds of Examples above at room temperature for 10 minutes, 2 μM histone H3 peptide (4× conc.) was added to the 384-well plate (25 μL/well). After sealing the plate with plate sealing foil and centrifuging at 1,500 rpm for 5 seconds, an enzymatic reaction was performed at room temperature for 1 hour. Upon completion of the enzyme reaction, 5 μL each of 200 nM Ulight™-Streptavidin (4× conc.) and 8 nM Eu-antibody (4× conc.) was added to each well of the plate. The plate was sealed with plate sealing foil, centrifuged at 1,500 rpm for 5 seconds and reacted at room temperature for 1 hour. The signal values were measured with Envision (Ex 320 nm, Em 665 nm), and all background values obtained by reacting without enzyme were deleted from the measured raw data values. Then, the EHMT2 enzyme activity inhibitory effect of the compounds of Examples 1 to 89 was converted into % values, and compared with the EHMT2 activity when treated with 4% DMSO vehicle (=0 nM compound) as 100%.
For orientation: In TR-FRET formats the signal depends on donor and acceptor labels being close together.
Broadly, the pIC50 is the negative decadic logarithm of the IC50, by convention in mol/L. A higher pIC50 goes with a low IC50. In turn, `COc1cc2c(NC3CCN(C(C)C)CC3)nc(N3CCCCC3)nc2cc1C#CCCC(=O)N(C)C` [Example 1, 5-(4-((1-isopropylpiperidine-4-yl)amino)-6-methoxy-2-(piperidine-1-yl)quinazoline-7-yl)-N,N-dimethylpentyne-4-amide] gave a pIC50 of 4.00 to 5.00.
For `COc1cc2c(NC3CCN(C(C)C)CC3)nc(N3CCCCC3)nc2cc1C#CCCC(=O)N1CCCC1` [Example 2, 5-(4-((1-isopropylpiperidine-4-yl)amino)-6-methoxy-2-(piperidine-1-yl)quinazoline-7-yl)-1-(pyrrolidine-1-yl)4-pentyne-1-one] the value was 4.00 to 5.00; for `COc1cc2c(NC3CCN(C(C)C)CC3)nc(N3CCC(F)(F)CC3)nc2cc1C#CCCN(C)C` [Example 4], 5.00 to 6.00.
For `COc1cc2c(NC3CCN(C(C)C)CC3)nc(N3CCOCC3)nc2cc1C#CCCN(C)C` [Example 5, 7-(4-(dimethylamino)-1-butyne-1-yl)-N-(1-isopropylpiperidine-4-yl)-6-methoxy-2-morpholinoquinazoline-4-amine] the value was 4.00 to 5.00; for `COc1cc2c(NC3CCN(C(C)C)CC3)nc(N3CCCC3)nc2cc1C#CCCN(C)C` [Example 6, 7-(4-(dimethylamino)-1-butyne-1-yl)-N-(1-isopropylpiperidine-4-yl)-6-methoxy-2-(pyrrolidine-1-yl)quinazoline-4-amine], more than 7.00.
For `COc1cc2c(NC3CCN(C(C)C)CC3)nc(N3CCN(C)CC3)nc2cc1C#CCCN(C)C` [Example 7, 7-(4-(dimethylamino)-1-butyne-1-yl)-N-(1-isopropylpiperidine-4-yl)-6-methoxy-2-(4-methylpiperazine-1-yl)quinazoline-4-amine] the value was 6.00 to 7.00.
Consider `COc1cc2c(NC3CCN(C(C)C)CC3)nc(N3CCCCCC3)nc2cc1C#CCCN(C)C` [Example 8, 2-(azepane-1-yl)-7-(4-(dimethylamino)-1-butyne-1-yl)-N-(1-isopropylpiperidine-4-yl)-6-methoxyquinazoline-4-amine], for which the pIC50 was more than 7.00.
As for `COc1cc2c(NC3CCN(C(C)C)CC3)nc(N3CCC4(CCCC4)C3)nc2cc1C#CCCN(C)C` [Example 9], the pIC50 was more than 7.00.
For `COc1cc2c(NC3CCN(C(C)C)CC3)nc(N3C[C@@H]4C[C@@H]4[C@@H]3CO)nc2cc1C#CCCN(C)C` [Example 10, ((1S,2R,5R)-3-(7-(4-(dimethylamino)-1-butyne-1-yl)-4-((1-isopropylpiperidine-4-yl)amino)-6-methoxyquinazoline-2-yl)-3-azabicyclo[3.1.0]hexane-2-yl)methanol] the value was 6.00 to 7.00; for `COc1cc2c(NC3CCN(C(C)C)CC3)nc(N3CCC(N(C)C)CC3)nc2cc1C#CCCN(C)C` [Example 11, 7-(4-(dimethylamino)-1-butyne-1-yl)-2-(4-(dimethylamino)piperidine-1-yl)-N-(1-isopropylpiperidine-4-yl)-6-methoxyquinazoline-4-amine], 5.00 to 6.00; for `COc1cc2c(NC3CCN(C(C)C)CC3)nc(N3CCCCC3)nc2cc1C#CCCN1CCCCC1` [Example 12, N-(1-isopropylpiperidine-4-yl)-6-methoxy-2-(piperidine-1-yl)-7-(4-(piperidine-1-yl)-1-butyne-1-yl)quinazoline-4-amine], more than 7.00.
For `CCN(CC)CCC#Cc1cc2nc(N3CCCCC3)nc(NC3CCN(C(C)C)CC3)c2cc1OC` [Example 13, 7-(4-(diethylamino)-1-butyne-1-yl)-N-(1-isopropylpiperidine-4-yl)-6-methoxy-2-(piperidine-1-yl)quinazoline-4-amine] the value was 5.00 to 6.00; for `COc1cc2c(NC3CCN(C(C)C)CC3)nc(N3CCCCC3)nc2cc1C#CCCN1CCC(C)CC1` [Example 15, N-(1-isopropylpiperidine-4-yl)-6-methoxy-7-(4-(4-methylpiperidine-1-yl)-1-butyne-1-yl)-2-(piperidine-1-yl)quinazoline-4-amine], 5.00 to 6.00.
For `COc1cc2c(NC3CCN(C(C)C)CC3)nc(N3CCCCC3)nc2cc1C#CCCN1CCCC1` [Example 16, N-(1-isopropylpiperidine-4-yl)-6-methoxy-2-(piperidine-1-yl)-7-(4-(pyrrolidine-1-yl)-1-butyne-1-yl)quinazoline-4-amine] the value was more than 7.00; for `COc1cc2c(NC3CCN(C(C)C)CC3)nc(N3CCCN(C)CC3)nc2cc1C#CCCN(C)C` [Example 17, 7-(4-(dimethylamino)-1-butyne-1-yl)-N-(1-isopropylpiperidine-4-yl)-6-methoxy-2-(4-methyl-1,4-diazepane-1-yl)quinazoline-4-amine], more than 7.00; for `COc1cc2c(NC3CCN(Cc4ccccc4)CC3)nc(N3CCCCC3)nc2cc1C#CCCN(C)C` [Example 18, N-(1-benzylpiperidine-4-yl)-7-(4-(dimethylamino)-1-butyne-1-yl)-6-methoxy-2-(piperidine-1-yl)quinazoline-4-amine], 5.00 to 6.00.
As to `COc1cc2c(N[C@@H]3CCCN(Cc4ccccc4)C3)nc(N3CCCCC3)nc2cc1C#CCCN(C)C` [Example 19, (R)-N-(1-benzylpiperidine-3-yl)-7-(4-(dimethylamino)-1-butyne-1-yl)-6-methoxy-2-(piperidine-1-yl)quinazoline-4-amine], the pIC50 was 4.00 to 5.00.
For `COc1cc2c(NCCN3CCCC3)nc(N3CCCCC3)nc2cc1C#CCCN(C)C` [Example 20, 7-(4-(dimethylamino)-1-butyne-1-yl)-6-methoxy-2-(piperidine-1-yl)-N-(2-(pyrrolidine-1-yl)ethyl)quinazoline-4-amine] the value was 5.00 to 6.00; for `COc1cc2c(NCCCN(C)C)nc(N3CCCCC3)nc2cc1C#CCCN(C)C` [Example 21, N1-(7-(4-(dimethylamino)-1-butyne-1-yl)-6-methoxy-2-(piperidine-1-yl)quinazoline-4-yl)-N3,N3-dimethylpropane-1,3-diamine], 6.00 to 7.00.
For `COc1cc2c(NC3CCN(C)CC3)nc(N3CCCCC3)nc2cc1C#CCCN(C)C` [Example 22, 7-(4-(dimethylamino)-1-butyne-1-yl)-6-methoxy-N-(1-methylpiperidine-4-yl)-2-(piperidine-1-yl)quinazoline-4-amine] the value was 6.00 to 7.00; for `COc1cc2c(NC3CCCCC3)nc(N3CCCCC3)nc2cc1C#CCCN(C)C` [Example 23, N-cyclohexyl-7-(4-(dimethylamino)-1-butyne-1-yl)-6-methoxy-2-(piperidine-1-yl)quinazoline-4-amine], 4.00 to 5.00; for `COc1cc2c(NC3CCN(C4CC4)CC3)nc(N3CCCCC3)nc2cc1C#CCCN(C)C` [Example 24, N-(1-cyclopropylpiperidine-4-yl)-7-(4-(dimethylamino)-1-butyne-1-yl)-6-methoxy-2-(piperidine-1-yl)quinazoline-4-amine], more than 7.00.
For `COc1cc2c(NC3CCN(c4ccccc4)CC3)nc(N3CCCCC3)nc2cc1C#CCCN(C)C` [Example 25, 7-(4-(dimethylamino)-1-butyne-1-yl)-6-methoxy-N-(1-phenylpiperidine-4-yl)-2-(piperidine-1-yl)quinazoline-4-amine] the value was 5.00 to 6.00.
Turning to `COc1cc2c(NCc3cccnc3)nc(N3CCCCC3)nc2cc1C#CCCN(C)C` [Example 26, 7-(4-(dimethylamino)-1-butyne-1-yl)-6-methoxy-2-(piperidine-1-yl)-N-(pyridine-3-ylmethyl)quinazoline-4-amine], the pIC50 is 6.00 to 7.00.
Turning to `COc1cc2c(NC3CC(C)(C)NC(C)(C)C3)nc(N3CCCCC3)nc2cc1C#CCCN(C)C` [Example 27, 7-(4-(dimethylamino)-1-butyne-1-yl)-6-methoxy-2-(piperidine-1-yl)-N-(2,2,6,6,-tetramethylpiperidine-4-yl)quinazoline-4-amine], the pIC50 is 6.00 to 7.00.
For `COc1cc2c(NCCN(C)C)nc(N3CCCCC3)nc2cc1C#CCCN(C)C` [Example 28, N1-(7-(4-(dimethylamino)-1-butyne-1-yl)-6-methoxy-2-(piperidine-1-yl)quinazoline-4-yl)-N2,N2-dimethylethane-1,2-diamine] the value was 6.00 to 7.00.
For `COc1cc2c(NC3CCN(C(C)C)CC3)nc(N3CCCCC3)nc2cc1C#CCCN1CC[C@H](F)C1` [Example 29, (S)-7-(4-(3-fluoropyrrolidine-1-yl)-1-butyne-1-yl)-N-(1-isopropylpiperidine-4-yl)-6-methoxy-2-(piperidine-1-yl)quinazoline-4-amine] the value was 6.00 to 7.00; for `COc1cc2c(NC3CCN(C(C)C)CC3)nc(N3CCCCC3)nc2cc1C#CCCN1CC[C@@H](F)C1` [Example 30, (R)-7-(4-(3-fluoropyrrolidine-1-yl)-1-butyne-1-yl)-N-(1-isopropylpiperidine-4-yl)-6-methoxy-2-(piperidine-1-yl)quinazoline-4-amine], 6.00 to 7.00.
